In patent publication US12139492B2 (Endotarget Inc., priority 2021, dated 2024) one finds IC50, Dmax and DC50 data, which are given here for 6 molecules.

Broadly, the Dmax is the largest share of the target that was removed. As usually defined, the DC50 is the midpoint of the concentration-degradation curve.

Where two headings read alike, the source gives them in different places. Some results are limits rather than exact numbers.

The subject of one test is Mino cells. Kind of test: Antiproliferative effect, MTS cell viability assay, Mino cells. In kind it is cell-based. To be noted: Homo sapiens, MINO, Mino mantle cell lymphoma cells; read-out: IC50 (anti-proliferation) Mino cells. An outline of the steps: (§1)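 Absorbance at 490 nm of formazan, formed by metabolically active cells from MTS tetrazolium, served as the viability measure after a 72 h treatment across a 0.001–10 μM concentration series plus untreated control.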
For orientation: Tetrazolium assays rely on reduction of a dye to a coloured formazan, in cell work by metabolically active cells.

In the next test the target is BTK (Homo sapiens, UniProt Q06187). Kind of test: Degradation of BTK protein in Namalwa cells (Western blot; DC50, Dmax). To be noted: for DC50: cell line not given. A general note: In western blotting, separated proteins are transferred to a membrane and probed.
Sequence of BTK (Q06187 whole entry): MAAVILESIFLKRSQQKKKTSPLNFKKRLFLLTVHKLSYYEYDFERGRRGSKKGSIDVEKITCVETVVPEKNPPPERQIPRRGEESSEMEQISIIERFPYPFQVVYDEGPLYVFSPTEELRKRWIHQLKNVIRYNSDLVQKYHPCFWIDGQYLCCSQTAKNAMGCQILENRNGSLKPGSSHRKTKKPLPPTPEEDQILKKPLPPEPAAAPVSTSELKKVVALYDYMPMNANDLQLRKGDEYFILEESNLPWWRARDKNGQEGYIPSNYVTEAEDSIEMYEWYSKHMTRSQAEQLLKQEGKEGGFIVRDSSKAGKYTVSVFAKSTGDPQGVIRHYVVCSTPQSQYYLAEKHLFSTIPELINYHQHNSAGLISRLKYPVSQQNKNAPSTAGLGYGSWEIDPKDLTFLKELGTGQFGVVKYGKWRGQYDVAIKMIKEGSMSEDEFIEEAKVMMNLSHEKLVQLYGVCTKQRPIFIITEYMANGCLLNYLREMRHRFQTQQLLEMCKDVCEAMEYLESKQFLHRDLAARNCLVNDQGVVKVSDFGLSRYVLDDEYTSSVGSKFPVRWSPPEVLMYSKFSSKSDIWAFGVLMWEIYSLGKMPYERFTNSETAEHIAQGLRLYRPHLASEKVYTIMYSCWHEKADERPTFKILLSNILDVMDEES
Another test relates to JeKo-1 cells. Kind of test: Antiproliferative effect, MTS cell viability assay, JeKo-1 cells. In kind it is cell-based. The conditions noted are these: Homo sapiens; JeKo-1 mantle cell lymphoma cells; read-out: IC50 (anti-proliferation) JeKO-1 cells. An outline of the steps: as §1
[1] abbreviates: read-out: DC50 (BTK degradation), concentration giving 50% reduction of BTK expression level.
Setting [2] is: read-out: Dmax (BTK degradation).

Consider `NC(=O)c1c(-c2ccc(Oc3ccccc3)cc2)nn2c1NCCC2C1CCN(CC2CCN(C(=O)N3CCN(C4CCN(c5ccc6c(c5)C(=O)N(C5CCC(=O)NC5=O)C6=O)CC4)CC3)CC2)CC1` (stereo not drawn) [Compound 361, 7-(1-((1-(4-(1-(2-(2,6-dioxopiperidin-3-yl)-1,3-dioxoisoindolin-5-yl)piperidin-4-yl)piperazine-1-carbonyl)piperidin-4-yl)methyl)piperidin-4-yl)-2-(4-phenoxyphenyl)-4,5,6,7-tetrahydropyrazolo[1,5-a]pyrimidine-3-carboxamide], for which the IC50 with Mino cells and in the test on JeKo-1 cells was 1000 to 10000 nM in each case. The same molecule returned a Dmax on BTK of more than 90%. For the same molecule, the DC50 on BTK (BTK degradation) was 10 to 50 nM.
`Nc1ncnc2c1c(-c1ccc(Oc3ccccc3)cc1)nn2C1CCN(C2CCN(CCN3CCC(c4ccc(NC5CCC(=O)NC5=O)cc4)CC3)CC2)CC1` (stereo not drawn) [Compound 579, 3-((4-(1-(2-(4-(4-amino-3-(4-phenoxyphenyl)-1H-pyrazolo[3,4-d]pyrimidin-1-yl)-[1,4′-bipiperidin]-1′-yl)ethyl)piperidin-4-yl)phenyl)amino)piperidine-2,6-dione]: the IC50 with Mino cells and in the test with JeKo-1 cells was less than 1000 nM in each case. Further, the half-maximal degradation concentration (DC50) at BTK (setting [1]) fell in the range of 10 to 50 nM. In addition, the Dmax at BTK (setting [2]) was more than 90%.
Take `Nc1ncnc2c1c(-c1ccc(Oc3ccccc3)cc1)nn2C1CCN(C2CCN(C(=O)N3CCN(CCC4CCN(c5ccc6c(c5)C(=O)N(C5CCC(=O)NC5=O)C6=O)CC4)CC3)CC2)CC1` (stereo not drawn) [Compound 247, 5-(4-(2-(4-(4-(4-amino-3-(4-phenoxyphenyl)-1H-pyrazolo[3,4-d]pyrimidin-1-yl)-[1,4′-bipiperidine]-1′-carbonyl)piperazin-1-yl)ethyl)piperidin-1-yl)-2-(2,6-dioxopiperidin-3-yl)isoindoline-1,3-dione]: the IC50 in the test with Mino cells and in the test with JeKo-1 cells was 1000 to 10000 nM throughout. Moreover, the greatest degradation seen (Dmax) at BTK is more than 75%. On BTK (BTK degradation), this molecule returned a DC50 of 10 to 50 nM.
As to `Nc1ncnc2c1c(-c1ccc(Oc3ccccc3)cc1)nn2C1CCC(C(=O)NCCN2CCN(c3ccc4c(c3)C(=O)N(C3CCC(=O)NC3=O)C4=O)CC2)CC1` (stereo not drawn) [Compound 522, 4-(4-amino-3-(4-phenoxyphenyl)-1H-pyrazolo[3,4-d]pyrimidin-1-yl)-N-(2-(4-(2-(2,6-dioxopiperidin-3-yl)-1,3-dioxoisoindolin-5-yl)piperazin-1-yl)ethyl)cyclohexane-1-carboxamide], the IC50 in the test on Mino cells and in the test on JeKo-1 cells was less than 1000 nM in each case. For the same molecule, at BTK (setting [1]), the DC50 is less than 10 nM. In addition, the Dmax at BTK (setting [2]) is more than 90%.
As for `Nc1ncnc2c1c(-c1ccc(Oc3ccccc3)cc1)nn2C1CCN(C2CCN(CCCN3CCC(c4ccc(NC5CCC(=O)NC5=O)cc4)CC3)CC2)CC1` (stereo not drawn) [Compound 580, 3-((4-(1-(3-(4-(4-amino-3-(4-phenoxyphenyl)-1H-pyrazolo[3,4-d]pyrimidin-1-yl)-[1,4′-bipiperidin]-1′-yl)propyl)piperidin-4-yl)phenyl)amino)piperidine-2,6-dione], the IC50 in the test on Mino cells and in the test with JeKo-1 cells was less than 1000 nM in each case. The half-maximal degradation concentration (DC50) at BTK (setting [1]) is less than 10 nM. Besides, the Dmax on BTK (setting [2]) is more than 90%.
In the case of `NC1=NC=NC2C1C(c1ccc(Oc3ccccc3)cc1)=NN2C1CCN(C(=O)N2CC(C3CN(c4ccc5c(c4)CN([C@@H]4CCC(=O)NC4=O)C5=O)C3)C2)CC1` (stereo partly drawn) [Compound 496, (3R)-3-(5-(1′-(4-(4-amino-3-(4-phenoxyphenyl)-3a,7a-dihydro-1H-pyrazolo[3,4-d]pyrimidin-1-yl)piperidine-1-carbonyl)-[3,3′-biazetidin]-1-yl)-1-oxoisoindolin-2-yl)piperidine-2,6-dione], the IC50 in the test on Mino cells and with JeKo-1 cells was less than 1000 nM each time. At BTK (setting [1]), the DC50 was less than 10 nM. Moreover, on BTK (setting [2]), the Dmax was more than 90%.
